# Assay results from patent publication US10493118B2, “Triterpenoid obtainable from hedera helix for treatment of neurodegenerative diseases” (Macau University of Science and Technology, priority 2016, dated 2019).
# What was measured:
# [1] = tested on: EGFP-HTT 74 (mutant huntingtin); test: Mutant huntingtin (EGFP-HTT 74) clearance in transfected PC-12 cells, Western blot; format: cell-based; conditions: EGFP-HTT 74 transfected PC-12 cells; hederagenin 40-80 μM, α-hederin 12-24 μM
# From the text: Protein extraction and Western blots: Cells were harvested by RIPA lysis buffer (Cell Signaling Technologies, Beverly, Mass., USA), and with the final protein concentrations measured by using Bradford reagent (Bio-Rad, Hercules, Calif., USA). After electrophoresis for protein band separation, proteins were transferred to the nitrocellulose membrane which was blocked with 5% non-fat dried milk immediately after protein transfer. Corresponding primary antibodies, followed by the addition of HRP-conjugated secondary antibodies, were incubated with the protein membrane with constant shaking. […] Band intensities were quantified by using the software, ImageJ (ImageJ 1.46r; National Institutes of Health, Bethesda, Md., USA).
# Cells were then treated with either hederagenin or α-hederin for a further 24 h to determine the protein level of mutant huntingtin by Western blot analysis using an antibody against GFP (Ravikumar, B. et al., Nat Genet 2004, 36:585-595). On the other hand, ATG7 wild-type and ATG7-deficient MEF cells transfected with EGFP-HTT 74 were analyzed for the formation of huntingtin inclusion after 24 h of hederagenin or α-hederin treatment. Percentages of cells with cytoplasmic GFP-huntingtin (GFP-HTT74) inclusion formation were counted by the number of cells with GFP inclusions over the total number of GFP-positive cells in the same field under fluorescent microscopic analysis. […]
# [2] = tested on: α-synuclein oligomerization; test: Bimolecular fluorescence complementation (BiFC) assay of α-synuclein oligomerization in HeLa cells; format: cell-based; conditions: for oligomerization of α-syn (GFP fluorescence intensity): transfected HeLa cells, hederagenin 40 or 80 μM, α-hederin 12 or 24 μM, 24 h
# Procedure: Bimolecular Fluorescence Complementation (BiFC) Assay: Both (1) non-fluorescent GFP-N terminal (GFP-N-α-syn), or (2) non-fluorescent GFP-C terminal (GFP-C-α-syn) plasmids were generous gifts from Pamela J. McLean (Department of Neuroscience, Mayo Clinic Florida, Jacksonville, Fla., USA). HeLa cells transfected with both GFP-N-α-syn and GFP-C-α-syn plasmids were incubated at 37° C. for 4 h. Cells were then subjected to different concentration of hederagenin or α-hederin treatments for a further 24 h in a humidified incubator at […] (Outeiro, T. F. et al., PLoS One 2008, 3:e1867). Green fluorescent signal which indicates the reconstitution of complete GFP proteins was detected by flow analysis (BD FACSAria III, San Jose, Calif., USA).
# [3] = UHPLC/MS/MS measurement of hederagenin and α-hederin level in mice brain tissues; format: in vivo
# Procedure: Whole mice brains were collected and weighted after sacrificed. Each brain tissue was put into 500 μl of NaCl solution and ultra-sonicated for 40 s to give the whole tissue homogenate. Each tube of homogenate was set to a final volume of 800 μl. […] The supernatant was collected and remaining precipitate was re-extracted with 200 μl of methanol. The collected supernatant was then combined and dried by using dry nitrogen blowing instrument. The residue was reconstituted with 200 μl of 30% acetonitrile, and then 10 μl of the aliquot was injected into the LC-MS/MS system (Su, F. L. et al., Chromatographia 2009, 69:207-213). […] The measurement of dopamine (DA), hederagenin and α-hederin level in mice brain tissues: Internal standard (IS, DHBA), DA, hederagenin and α-hederin level in the mouse brain, were quantified using UHPLC/MS/MS system which includes Agilent 1290 Infinity UHPLC, and Agilent 6460 Triple Quadrupole, equipped with an electrospray ionization interface used to generate positive ions for the determination of DA; negative ion mode for the measurement of hederagenin and α-hederin in mouse brains. The compounds in plasma samples were analyzed by using the Agilent Zorbax Eclipse Plus C-18 column with a particle size of 1.8 μm (flow rate: 0.35 mL/min). […] Data were analyzed by using Agilent MassHunter Workstation software B.01.03. […]
# [4] = tested on: myc-tagged-A53T-α-syn; format: cell-based; conditions: PC-12 cells after 1 μg/ml Dox induction; hederagenin 40 or 60 μM, α-hederin 12 or 24 μM
# From the text: (§1) Protein extraction and Western blots: Cells were harvested by RIPA lysis buffer (Cell Signaling Technologies, Beverly, Mass., USA), and with the final protein concentrations measured by using Bradford reagent (Bio-Rad, Hercules, Calif., USA). After electrophoresis for protein band separation, proteins were transferred to the nitrocellulose membrane which was blocked with 5% non-fat dried milk immediately after protein transfer. Corresponding primary antibodies, followed by the addition of HRP-conjugated secondary antibodies, were incubated with the protein membrane with constant shaking. Visualization of protein band pattern was performed by using the ECL Western Blotting Detection Reagents (Invitrogen, Paisley, Scotland). Band intensities were quantified by using the software, ImageJ (ImageJ 1.46r; National Institutes of Health, Bethesda, Md., USA).
# [5] = tested on: p-AMPK; test: Western blot of AMPK phosphorylation; format: cell-based; conditions: hederagenin 0-80 μM, α-hederin 0-24 μM, 24 h
# From the text: as §1
# [6] = tested on: GFP-LC3 transfected Atg7+/+ and Atg7−/− MEFs; test: GFP-LC3 puncta formation in ATG7 wild-type and ATG7 deficient MEFs; format: cell-based, mouse; conditions: α-hederin 12 or 24 μM, hederagenin 40, 60 or 80 μM, 24 h
# Procedure: Immunocytochemistry and fluorescence microscopy: In brief, GFP-LC3 puncta formation was analyzed as described previously (Wu, A. G. et al. Int J Mol Sci 2013, 14:22618-22641). Firstly, cells were plated on top of coverslips inside a 6-well culture dish. After compounds treatments, cells were fixed with 4% paraformaldehyde for 20 min. FluorSave™ mounting media (Calbiochem, San Diego, Calif., USA) was used to mount the coverslips with cells before subjected to fluorescence microscopic analysis. The number of GFP-positive cells, and cells with GFP-LC3 puncta formation was examined and counted under the Nikon ECLIPSE 80i microscope by using 40× of magnification. In order to standardize the quantitation, the percentage of cells with autophagy induction was defined by counting the number of cells with punctate GFP-LC3 fluorescence in GFP-positive cells. A minimum of 1000 GFP-positive cells from 3 randomly selected fields were scored.
SMILES,clearance of overexpressed huntingtin in PC-12 cells [1],"inhibition of α-syn oligomerization relative to α-hederin ([2]; BiFC assay, HeLa cells)",oligomerization of α-syn (GFP fluorescence intensity) [2],"level detected in the brain tissue ([3]; C57BL/6, mouse, in vivo, po, 80 mg/kg)",clearance of overexpressed mutant A53T α-syn [4],phosphorylation of AMPK [5],GFP-LC3-II puncta formation in ATG7-wild type MEFs [6],"level detected in the brain tissue ([3]; mice with 80 mg/kg HH-EF′ treatment, oral)"
CC1(C)CC[C@]2(C(=O)O)CC[C@]3(C)C(=CC[C@@H]4[C@@]5(C)CC[C@H](O)[C@@](C)(CO)[C@@H]5CC[C@]43C)[C@@H]2C1 [hederagenin],facilitate the clearance of overexpressed huntingtin,more potent in the inhibition,inhibit the oligomerization of α-syn,3.39 nM,facilitate the clearance of the overexpressed mutant α-,increased phosphorylation of AMPK,significantly increase the GFP-LC3-II puncta formation,
C[C@@H]1O[C@@H](O[C@H]2[C@H](O[C@H]3CC[C@@]4(C)[C@@H](CC[C@]5(C)[C@@H]4CC=C4[C@@H]6CC(C)(C)CC[C@]6(C(=O)O)CC[C@]45C)[C@]3(C)CO)OC[C@H](O)[C@@H]2O)[C@H](O)[C@H](O)[C@H]1O [α-hederin],facilitate the clearance of overexpressed huntingtin,,inhibit the oligomerization of α-syn,,facilitate the clearance of the overexpressed mutant α-,increased phosphorylation of AMPK,significantly increase the GFP-LC3-II puncta formation,2.98 nM
